Data on 2 compounds can be found in ChEMBL document CHEMBL6153083, “Synthesis, Structural Modification, and Antismall Cell Lung Cancer Activity of 3-Arylisoquinolines with Dual Inhibitory Activity on Topoisomerase I and II” (J Med Chem, 2025).

The term IC50 denotes the midpoint of a concentration-inhibition curve. Higher therefore signals weaker potency. The MRT last is a mean duration of stay, worked out from the concentration-time curve. Broadly, the pIC50 is −log10 of the IC50, conventionally taken in molar units.

Data set [1] can be described thus: Antiproliferative activity against human L02 cells incubated for 72 hrs. The data set is classed as toxicity, cell-based.
The target in data set [2] is T1, DNA topoisomerase 1 (Homo sapiens) (UniProt P11387).
T1 sequence (whole entry): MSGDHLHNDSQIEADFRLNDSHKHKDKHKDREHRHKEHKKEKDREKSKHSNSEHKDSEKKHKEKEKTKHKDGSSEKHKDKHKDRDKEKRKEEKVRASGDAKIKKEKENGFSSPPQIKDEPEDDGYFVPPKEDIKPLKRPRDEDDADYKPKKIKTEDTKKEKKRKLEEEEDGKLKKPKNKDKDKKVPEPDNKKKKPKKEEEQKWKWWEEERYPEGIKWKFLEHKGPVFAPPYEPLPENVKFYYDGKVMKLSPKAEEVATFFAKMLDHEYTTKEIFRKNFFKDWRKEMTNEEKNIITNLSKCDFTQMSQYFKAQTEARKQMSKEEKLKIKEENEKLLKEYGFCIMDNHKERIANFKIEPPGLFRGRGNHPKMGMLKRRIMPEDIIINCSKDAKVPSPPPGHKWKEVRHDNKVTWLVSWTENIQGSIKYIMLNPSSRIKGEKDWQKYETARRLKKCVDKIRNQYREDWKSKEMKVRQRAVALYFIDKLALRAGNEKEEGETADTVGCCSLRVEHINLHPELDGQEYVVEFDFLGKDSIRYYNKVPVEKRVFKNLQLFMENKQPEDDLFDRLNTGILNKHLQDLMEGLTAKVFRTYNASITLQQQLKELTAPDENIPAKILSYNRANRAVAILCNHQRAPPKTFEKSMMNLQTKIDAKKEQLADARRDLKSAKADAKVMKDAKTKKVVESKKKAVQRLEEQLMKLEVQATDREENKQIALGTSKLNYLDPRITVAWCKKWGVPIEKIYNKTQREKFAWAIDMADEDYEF
Briefly: Inhibition of Topo I (unknown origin) relaxation activity using pBR322 plasmid DNA as substrate at 25 to 100 uM incubated for 30 mins. As to conditions: dose 25-100 µM.

Data set [3] relates to NCI-H446. Briefly: Inhibition of clonogenesis in human NCI-H446 cells incubated for 14 to 21 days by crystal violet staining based analysis. The data set is classed as functional, cell-based. As to conditions: dose 0.375-3 µM, time 14-21 day.
For data set [4], the system named is NCI-H446. Briefly: Induction of apoptosis in human NCI-H446 cells assessed as formation of membrane blebbing at 1 to 8 uM incubated for 48 hrs by Geimsa staining based analysis. The class given is functional, cell-based. To be noted: dose 1-8 µM.
The nature of data set [5]: Toxicity in BALB/c nude mouse xenografted with human NCI-H446 cells assessed as deleterious effect in kidney at 10 to 20 mg/kg, ip for 21 days by H and E staining based analysis. The data set is classed as organism-based. To be noted: in vivo, 504 h, dose 10-20 mg/kg, time 21 day. (A xenograft is tissue or cells of one species grown in another, often human tumour cells in immunodeficient mice.)

In data set [6] the test system is NCI-H1048. Briefly: Induction of mitochondrial dysfunction in human NCI-H1048 cells assessed as increase in ROS level at 1 to 8 uM incubated for 48 hrs by DCFH-DA staining based flow cytometry. The data set is classed as functional, cell-based. As to conditions: dose 1-8 µM.
A short description of data set [7]: Toxicity in BALB/c nude mouse xenografted with human NCI-H446 cells assessed as deleterious effect in spleen at 10 to 20 mg/kg, ip for 21 days by H and E staining based analysis. As to conditions: in vivo, 504 h, dose 10-20 mg/kg, time 21 day. The class given is organism-based.
Data set [8] concerns NCI-H446. Briefly: Induction of early apoptosis in human NCI-H446 cells incubated for 48 hrs by Annexin V-FITC/PI staining based flow cytometry. The data set is classed as functional, cell-based. As to conditions: dose 1-8 µM.
The subject of data set [9] is NCI-H446. Briefly: Induction of apoptosis in human NCI-H446 cells assessed as decrease in Bcl-2 level incubated for 48 hrs by Western blot analysis. The class given is functional, cell-based. As to conditions: dose 1-8 µM.
For data set [10], the system named is NCI-H1048. Briefly: Induction of early apoptosis in human NCI-H1048 cells incubated for 48 hrs by Annexin V-FITC/PI staining based flow cytometry. The data set is classed as functional, cell-based. To be noted: dose 1-8 µM. A general note: Flow cytometry measures light scatter and fluorescence of single cells or particles in a stream.
Data set [11] can be described thus: Inhibition of PI3K/AKT/mTOR signalling pathway in human NCI-H1048 cells assessed as decrease in AKT level at 1 to 8 uM incubated for 48 hrs by Western blot analysis. The data set is classed as cell-based. To be noted: dose 1-8 µM. In general terms: Immunoblotting shows a protein as a band on a membrane.
Data set [12] deals with NCI-H446. Briefly: Induction of mitochondrial membrane permeability in human NCI-H446 cells assessed as increase in cytochrome C release at 1 to 8 uM incubated for 48 hrs by Western blot analysis. The class given is functional, cell-based. To be noted: dose 1-8 µM.
Data set [13] is described as follows: Inhibition of PI3K/AKT/mTOR signalling pathway in human NCI-H1048 cells assessed as decrease in mTOR level at 1 to 8 uM incubated for 48 hrs by Western blot analysis. The data set is classed as cell-based. To be noted: dose 1-8 µM.
In data set [14] the test system is NCI-H446. Briefly: Inhibition of cell proliferation in human NCI-H446 cells incubated for 24 hrs by EdU incorporation assay. As to conditions: dose 0.375-3 µM. The class given is functional, cell-based.
The nature of data set [15]: MRT (0 to t) in Sprague-Dawley rat at 10 mg/kg, ip measured after 24 hrs by LC-MS/MS analysis. The data set is classed as ADME, organism-based. As to conditions: in vivo.
The next data set concerns NCI-H209. Briefly: Antiproliferative activity against human NCI-H209 cells incubated for 72 hrs. The class given is functional, cell-based. As to conditions: NCI-H209, 72 h.
For data set [16], the system named is NCI-H1048. Briefly: Antiproliferative activity against human NCI-H1048 cells incubated for 72 hrs. The class given is functional, cell-based. To be noted: NCI-H1048, 72 h.
The test system of data set [17] is NCI-H446. Briefly: Induction of mitochondrial dysfunction in human NCI-H446 cells assessed as increase in ROS level at 1 to 8 uM incubated for 48 hrs by DCFH-DA staining based flow cytometry. The class given is functional, cell-based. To be noted: dose 1-8 µM.
Data set [18] has as its system NCI-H446. Briefly: Induction of cell cycle arrest in human NCI-H446 cells assessed as accumulation at S phase incubated for 48 hrs by PI staining based flow cytometry. The class given is functional. As to conditions: dose 1-8 µM.
Data set [19] has as its system NCI-H1048. Briefly: Inhibition of clonogenesis in human NCI-H1048 cells incubated for 14 to 21 days by crystal violet staining based analysis. The class given is functional, cell-based. As to conditions: dose 0.375-3 µM, time 14-21 day.
The test system of data set [20] is NCI-H446. Briefly: Induction of apoptosis in human NCI-H446 cells assessed as increase in cleaved caspase-3 level incubated for 48 hrs by Western blot analysis. The class given is functional, cell-based. To be noted: dose 1-8 µM.
Data set [21] relates to NCI-H1048. Briefly: Induction of mitochondrial membrane permeability in human NCI-H1048 cells assessed as increase in cytochrome C release at 1.75 to 14 uM incubated for 48 hrs by Western blot analysis. The class given is functional, cell-based. To be noted: dose 1.75-14 µM.
Data set [22] can be described thus: Inhibition of PI3K/AKT/mTOR signalling pathway in human NCI-H1048 cells assessed as decrease in AKT level at 1.75 to 14 uM incubated for 48 hrs by Western blot analysis. The class given is cell-based. To be noted: dose 1.75-14 µM.
The nature of data set [23]: Inhibition of PI3K/AKT/mTOR signalling pathway in human NCI-H1048 cells assessed as decrease in PI3K phosphorylation at 1.75 to 14 uM incubated for 48 hrs by Western blot analysis. The data set is classed as cell-based. To be noted: dose 1.75-14 µM.
The subject of data set [24] is NCI-H446. Briefly: Induction of apoptosis in human NCI-H446 cells assessed as formation of cellular fragments at 1 to 8 uM incubated for 48 hrs by Annexin V-FITC/PI staining based flow cytometry. The data set is classed as functional, cell-based. To be noted: dose 1-8 µM.
Data set [25] concerns NCI-H1048. Briefly: Induction of mitochondrial dysfunction in human NCI-H1048 cells assessed as increase in ROS level at 1.75 to 14 uM incubated for 48 hrs by DCFH-DA staining based flow cytometry. The data set is classed as functional, cell-based. As to conditions: dose 1.75-14 µM.
Data set [26] in a line: Inhibition of PI3K/AKT/mTOR signalling pathway in human NCI-H1048 cells assessed as decrease in mTOR level at 1.75 to 14 uM incubated for 48 hrs by Western blot analysis. As to conditions: dose 1.75-14 µM. The data set is classed as cell-based.
Data set [27] has as its system NCI-H1048. Briefly: Induction of apoptosis in human NCI-H1048 cells at 1.75 to 14 uM incubated for 48 hrs by Annexin V-FITC/PI staining based flow cytometry. The class given is functional, cell-based. As to conditions: dose 1.75-14 µM.

Each structure is given as a SMILES string. pIC50: −log10 of the molar value. Activity calls are given as the source filed them. The calls are words filed in the database; no cut-off is given here.

Turning to `CC1CC(C)CN(Cc2cc3c(cc2-c2cc4ccc5c(c4cn2)OCO5)OCO3)C1` (stereo not drawn), the IC50 at 72 h in data set [1] is 29.1 µM. Further, the inhibition entry in data set [2], in data set [11] and in [13] was “Active” throughout. For the same compound, the inhibition result in the data set on NCI-H446 [3] is “Dose-dependent-effect”; in the data set on NCI-H446 [14], “Dose-dependent-effect; Exhibited Similar Inhibitory Effect To That Of Etoposide At Same Concentration”; in the data set on NCI-H1048 [19], “Dose-dependent-effect; Potent Inhibitory Effect At Equivalent Efficacy As Etoposide”. Moreover, the outcome in the data set with NCI-H446 [4], with NCI-H1048 [6], in the data set with NCI-H446 [12] and in the data set on NCI-H446 [17] was Active. Further, the Activity result is “Non-toxic” in data set [5]; “Non-toxic” in data set [7]; “Dose-dependent-effect; Exhibited Stronger Effect Than Etoposide” in the data set with NCI-H446 [8]; “Dose-dependent-effect” in the data set with NCI-H446 [9]; “Dose-dependent-effect; Exhibited Stronger Effect Than Etoposide” in the data set on NCI-H1048 [10]; “Dose-dependent-effect” with NCI-H446 [18]. Also, in the data set on NCI-H446 [20], the Activity result was “Dose-dependent-effect”. The same compound registered an MRT last at 24 h in data set [15] of 5.02 h. Moreover, the figures for the pIC50 with NCI-H209 and in the data set with NCI-H1048 [16] were 4.43 and 5.85, respectively.
Consider `CCC1CCCC(C)N1Cc1cc2c(cc1-c1cc3ccc4c(c3cn1)OCO4)OCO2` (stereo not drawn), for which it took 26.1 µM to reach half-maximal inhibition in data set [1] (IC50 at 72 h). The inhibition result in data set [2], in [22], in data set [23] and in data set [26] was “Active” in each case. In addition, the inhibition result with NCI-H446 [3] is “Dose-dependent-effect”; in the data set with NCI-H446 [14], “Dose-dependent-effect; Exhibited Similar Inhibitory Effect To That Of Etoposide At Same Concentration”; with NCI-H1048 [19] it was “Dose-dependent-effect”. The outcome in the data set with NCI-H446 [4], in the data set on NCI-H1048 [21], with NCI-H1048 [25] and in the data set on NCI-H446 [17] was Active. For the same compound, the Activity result is “Non-toxic” in data set [5]; “Non-toxic” in data set [7]; “Active; Activity Similar To Etoposide” in the data set with NCI-H446 [24]; “Dose-dependent-effect” with NCI-H446 [9]; “Dose-dependent-effect” in the data set on NCI-H446 [18]; “Active; Less Effective Than Etoposide” with NCI-H1048 [27]. Also, the Activity result in the data set with NCI-H446 [20] is “Dose-dependent-effect”. The MRT last at 24 h in [15] stood at 5.42 h. The figures for the pIC50 with NCI-H209 and in the data set on NCI-H1048 [16] were 4.94 and 5.61, respectively.
